Measurements published in BindingDB's records for doi:10.1016/j.ejmech.2019.111921 (University of Kwazulu-Natal, 2020).

Experiments:
[1] = target: T1, Beta-glucuronidase (Rattus norvegicus, UniProt P06760); assay: Inhibition of degranulated rat neutrophils beta-glucuronidase
T1 sequence (P06760 whole entry): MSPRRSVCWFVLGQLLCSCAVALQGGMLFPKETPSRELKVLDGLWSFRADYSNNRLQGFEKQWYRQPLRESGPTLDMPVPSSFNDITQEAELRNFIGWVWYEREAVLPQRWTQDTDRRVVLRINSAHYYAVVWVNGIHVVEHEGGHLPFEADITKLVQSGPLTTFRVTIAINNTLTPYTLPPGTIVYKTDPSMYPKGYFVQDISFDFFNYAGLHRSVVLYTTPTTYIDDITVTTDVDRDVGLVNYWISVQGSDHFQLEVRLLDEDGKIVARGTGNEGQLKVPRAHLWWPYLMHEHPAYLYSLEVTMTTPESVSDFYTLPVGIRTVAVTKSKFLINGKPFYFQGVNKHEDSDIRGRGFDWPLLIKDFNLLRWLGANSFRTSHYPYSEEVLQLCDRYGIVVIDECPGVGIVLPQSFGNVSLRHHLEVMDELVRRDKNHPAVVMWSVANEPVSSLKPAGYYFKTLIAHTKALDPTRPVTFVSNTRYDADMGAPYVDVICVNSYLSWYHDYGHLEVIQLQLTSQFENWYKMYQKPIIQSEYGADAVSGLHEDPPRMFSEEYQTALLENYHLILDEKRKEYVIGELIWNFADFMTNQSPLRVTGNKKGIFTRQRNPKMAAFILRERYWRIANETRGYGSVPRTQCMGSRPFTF

[2] = target: T2, Beta-glucuronidase (Homo sapiens, UniProt P08236); assay: Inhibition of beta-glucuronidase (unknown origin)
T2 sequence (P08236 whole entry): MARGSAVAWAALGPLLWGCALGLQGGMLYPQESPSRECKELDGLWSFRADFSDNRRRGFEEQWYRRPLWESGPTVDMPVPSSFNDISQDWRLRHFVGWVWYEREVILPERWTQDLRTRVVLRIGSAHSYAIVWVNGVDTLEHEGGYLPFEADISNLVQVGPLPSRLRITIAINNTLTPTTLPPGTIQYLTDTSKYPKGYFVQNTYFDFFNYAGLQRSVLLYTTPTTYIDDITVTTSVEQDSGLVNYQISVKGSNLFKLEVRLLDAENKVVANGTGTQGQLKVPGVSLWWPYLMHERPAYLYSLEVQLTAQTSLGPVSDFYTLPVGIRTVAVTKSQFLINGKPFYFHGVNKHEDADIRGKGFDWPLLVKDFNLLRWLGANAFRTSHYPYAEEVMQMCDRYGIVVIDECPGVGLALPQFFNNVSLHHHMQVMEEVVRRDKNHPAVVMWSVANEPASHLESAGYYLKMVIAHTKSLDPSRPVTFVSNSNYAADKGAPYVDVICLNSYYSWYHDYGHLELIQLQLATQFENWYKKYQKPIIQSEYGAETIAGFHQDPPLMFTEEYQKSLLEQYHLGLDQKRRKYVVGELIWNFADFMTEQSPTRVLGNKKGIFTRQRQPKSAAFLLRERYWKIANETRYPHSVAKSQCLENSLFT

[3] = target: T1, Beta-glucuronidase; assay: Inhibition of degranulated rat peritoneal mast cells beta-glucuronidase

Compound | IC50 [1] [µM] | IC50 [2] [µM] | IC50 [3] [µM]
C/C(=C/Cc1c(O)ccc(C(=O)/C=C/c2ccc(O)cc2)c1O)COC(=O)/C=C/c1ccc(O)cc1 [gemichalcones B] | 5.8 | – | –
COc1cc([C@@H]2Oc3cc([C@H]4Oc5cc(O)cc(O)c5C(=O)[C@@H]4O)ccc3O[C@H]2CO)ccc1O [Silybin B] | – | 1640 | –
COc1cc(/C=C/C(=O)OC/C(C)=C\Cc2c(O)ccc(C(=O)/C=C/c3ccc(O)cc3)c2O)ccc1O [Gemichalcone A] | 6.6 | – | 70
